Results on 1 molecule are retold here after patent EP0335545B2, “Pharmaceutical formulations for parenteral use” (UNIVERSITY OF FLORIDA, priority 1988, dated 1989).

Data set [1] in a line: Solid complex of E2-CDS with maltosyl-β-cyclodextrin/dimaltosyl-β-cyclodextrin mixture. Type of data set: physicochemical. The protocol: In one example of the formulation of a solid complex, an excess of a representative CDS, E2-CDS, was added to a 40% aqueous solution of a mixture of maltosyl-β-cyclodextrin (71%) and various dimaltosyl-β-cyclodextrins (29%) obtained from Ensuiko Sugar Co., Ltd., Lot No. 88190, and mixed for several hours. The suspension was then filtered and freeze-dried, and the amount of complexed drug was determined analytically by UV spectraphotometry. The amount of incorporation was determined to be 81.88 mg/g.

The nature of data set [2]: physchem. The following applies: 50% w/w aqueous hpcd. The protocol: An excess of E2-CDS was sonicated with an aqueous solution of the appropriate solubilizing agent for 30 minutes. The suspension was then centrifuged, filtered through 0.45 µm polyvinylidene difluoride (Millex-HV4, Millipore®) membranes and analyzed by HPLC. […] An estimation of the bulk equilibrium constant was obtained by correlating the millimolarity of E2-CDS solubilized and the millimolarity of the cyclodextrin added. This latter value was calculated using the average molecular weight of the isomeric mixture determined by mass spectroscopy. The solubilizing effect of a 50% w/w solution of HPCD was also examined for a series of steroids and dihydropyridines (CDS). These studies were carried out in a similar manner to those previously described.
For the CDS, the wavelength monitored was 360 nm while for estrogen 220 nm was used.
Separation was achieved on an Analytical Sciences, Inc. (ASI) 10 µm particle size, C18 reversed phase 30 cm x 3.9 mm i.d. analytical column. The flow rate was 1 mL/min, the compounds were detected at 360 nm and in all determinations the temperature was ambient. […] For the GABA-CDS1, a mobile phase consisting of 50:1:1:48 of the same components was required. […] Other compounds were assayed spectrophotometrically.

Converted amounts (≈) assume the structure as drawn.

The solubility is how much of the substance goes into solution per volume. As for `CN1C=CCC(C(=O)O[C@H]2CC[C@H]3[C@@H]4CCc5cc(O)ccc5[C@H]4CC[C@]23C)=C1` [Example E2-CDS, 3-Hydroxy-17β-[(1-methyl-1,4-dihydropyridin-3-yl)carbonyl]oxyestra-1,3,5(10)-triene], in data set [1] (40% aqueous maltosyl-β-cyclodextrin (71%) / dimaltosyl-β-cyclodextrins (29%), freeze-dried), the amount of incorporation was determined as 81.88 mg/g. The “amount of incorporation, comparable figure” value in data set [1] (HPCD) is listed as “approximately 36.2 mg/g”. This molecule also had a solubility in data set [2] of 22 mg/mL (≈ 55.9 mM).
